Measured values as given in BindingDB's records for doi:10.1124/jpet.104.067884 (Sanofi-Synthelabo Recherche, 2004).

What was measured:
[1] = target: Cannabinoid receptor 1 (Homo sapiens, UniProt P21554)
[2] = target: Cannabinoid receptor 2 (Homo sapiens, UniProt P34972)
Cannabinoid receptor 2, sequence (P34972 whole entry): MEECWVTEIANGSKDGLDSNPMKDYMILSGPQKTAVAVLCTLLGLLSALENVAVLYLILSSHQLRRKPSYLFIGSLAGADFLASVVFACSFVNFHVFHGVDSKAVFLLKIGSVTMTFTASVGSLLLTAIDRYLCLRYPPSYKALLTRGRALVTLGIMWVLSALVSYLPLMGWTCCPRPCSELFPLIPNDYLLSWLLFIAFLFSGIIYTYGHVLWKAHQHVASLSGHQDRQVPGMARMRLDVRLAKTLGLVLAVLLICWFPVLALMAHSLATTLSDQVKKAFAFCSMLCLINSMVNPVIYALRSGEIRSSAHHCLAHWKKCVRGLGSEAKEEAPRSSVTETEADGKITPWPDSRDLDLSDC

Cannabinoid receptor 1, sequence (P21554 whole entry): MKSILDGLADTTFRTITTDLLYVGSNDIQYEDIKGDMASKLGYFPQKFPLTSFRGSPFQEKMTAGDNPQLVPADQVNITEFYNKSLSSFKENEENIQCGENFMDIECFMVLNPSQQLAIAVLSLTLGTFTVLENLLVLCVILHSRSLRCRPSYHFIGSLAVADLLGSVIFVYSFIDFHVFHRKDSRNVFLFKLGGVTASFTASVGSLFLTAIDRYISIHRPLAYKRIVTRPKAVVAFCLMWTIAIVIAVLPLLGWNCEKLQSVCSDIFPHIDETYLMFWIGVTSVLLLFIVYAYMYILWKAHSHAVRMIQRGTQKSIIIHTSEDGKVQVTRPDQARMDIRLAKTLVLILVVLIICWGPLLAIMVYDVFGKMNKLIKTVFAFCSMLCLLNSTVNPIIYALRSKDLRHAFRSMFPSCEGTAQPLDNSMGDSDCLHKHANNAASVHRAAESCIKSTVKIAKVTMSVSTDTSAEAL

## CCc1c(C(=O)NN2CCCCC2)nn(-c2ccc(Cl)cc2Cl)c1-c1ccc(Br)cc1 [SR 147778]
[1]
  Ki: 3.5 nM
[2]
  Ki: 442 nM
